Results: PubChem BioAssay (NCI)
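Assay format: 96-well plates, 48-hour exposure. GI50: concentration for 50% inhibition of growth. TGI: total growth inhibition.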

Key:
Experiment in all cases: growth of human tumour cells (NCI), 48 h
786-0 renal = test system: 786-0 renal
A498 renal = test system: A498 renal
A549 NSCLC = test system: A549 NSCLC
ACHN renal = test system: ACHN renal
BT-549 breast = test system: BT-549 breast
CAKI-1 renal = test system: CAKI-1 renal
CCRF-CEM leukemia = test system: CCRF-CEM leukemia
COLO 205 colon = test system: COLO 205 colon
DU-145 prostate = test system: DU-145 prostate
EKVX NSCLC = test system: EKVX NSCLC
HCC-2998 colon = test system: HCC-2998 colon
HCT-116 colon = test system: HCT-116 colon
HCT-15 colon = test system: HCT-15 colon
HL-60(TB) leukemia = test system: HL-60(TB) leukemia
HOP-62 NSCLC = test system: HOP-62 NSCLC
HOP-92 NSCLC = test system: HOP-92 NSCLC
HS 578T breast = test system: HS 578T breast
HT29 colon = test system: HT29 colon
IGROV1 ovarian = test system: IGROV1 ovarian
K-562 leukemia = test system: K-562 leukemia
KM12 colon = test system: KM12 colon
LOX IMVI melanoma = test system: LOX IMVI melanoma
M14 melanoma = test system: M14 melanoma
MALME-3M melanoma = test system: MALME-3M melanoma
MCF7 breast = test system: MCF7 breast
MDA-MB-231 breast = test system: MDA-MB-231 breast
MDA-MB-435 = test system: MDA-MB-435
NCI-H226 lung = test system: NCI-H226 lung
NCI-H460 lung = test system: NCI-H460 lung
NCI-H522 lung = test system: NCI-H522 lung
OVCAR-4 ovarian = test system: OVCAR-4 ovarian
OVCAR-5 ovarian = test system: OVCAR-5 ovarian
OVCAR-8 ovarian = test system: OVCAR-8 ovarian
PC-3 prostate = test system: PC-3 prostate
RPMI-8226 leukemia = test system: RPMI-8226 leukemia
RXF 393 renal = test system: RXF 393 renal
SF-268 CNS = test system: SF-268 CNS
SF-295 CNS = test system: SF-295 CNS
SF-539 CNS = test system: SF-539 CNS
SK-MEL-2 melanoma = test system: SK-MEL-2 melanoma
SK-MEL-28 melanoma = test system: SK-MEL-28 melanoma
SK-MEL-5 melanoma = test system: SK-MEL-5 melanoma
SK-OV-3 ovarian = test system: SK-OV-3 ovarian
SN12C renal = test system: SN12C renal
SNB-19 CNS = test system: SNB-19 CNS
SNB-75 CNS = test system: SNB-75 CNS
SR leukemia = test system: SR leukemia
SW-620 colon = test system: SW-620 colon
T-47D breast = test system: T-47D breast
TK-10 renal = test system: TK-10 renal
U251 CNS = test system: U251 CNS
UACC-257 melanoma = test system: UACC-257 melanoma
UACC-62 melanoma = test system: UACC-62 melanoma
UO-31 renal = test system: UO-31 renal

## COc1ccc2c(c1)Oc1nc(N)c(C#N)c(N)c1C2Sc1ccc(C)cc1 (stereo not drawn)
786-0 renal
  GI50: 1700 nM
  TGI: 3130 nM
A498 renal
  GI50: 1480 nM
  TGI: 2800 nM
A549 NSCLC
  GI50: 1770 nM
  TGI: 3330 nM
ACHN renal
  GI50: 1660 nM
  TGI: 3020 nM
BT-549 breast
  GI50: 1290 nM
  TGI: 2580 nM
CAKI-1 renal
  GI50: 1340 nM
  TGI: 2630 nM
CCRF-CEM leukemia
  GI50: 421 nM
  TGI: > 100000 nM
COLO 205 colon
  GI50: 1900 nM
  TGI: 3600 nM
DU-145 prostate
  GI50: 1870 nM
  TGI: 3340 nM
EKVX NSCLC
  GI50: 1720 nM
  TGI: 3280 nM
HCC-2998 colon
  GI50: 1750 nM
  TGI: 3260 nM
HCT-116 colon
  GI50: 1750 nM
  TGI: 3310 nM
HCT-15 colon
  GI50: 1330 nM
  TGI: 2830 nM
HL-60(TB) leukemia
  GI50: 1720 nM
  TGI: 5260 nM
HOP-62 NSCLC
  GI50: 1820 nM
  TGI: 3310 nM
HOP-92 NSCLC
  GI50: 1640 nM
  TGI: 3010 nM
HS 578T breast
  GI50: 2410 nM
  TGI: 5830 nM
HT29 colon
  GI50: 1800 nM
  TGI: 3300 nM
IGROV1 ovarian
  GI50: 1200 nM
  TGI: 2490 nM
K-562 leukemia
  GI50: 584 nM
  TGI: > 100000 nM
KM12 colon
  GI50: 1740 nM
  TGI: 3150 nM
LOX IMVI melanoma
  GI50: 1410 nM
  TGI: 2840 nM
M14 melanoma
  GI50: 1850 nM
  TGI: 3360 nM
MALME-3M melanoma
  GI50: 1670 nM
  TGI: 3120 nM
MCF7 breast
  GI50: 1260 nM
  TGI: 2900 nM
MDA-MB-231 breast
  GI50: 1710 nM
  TGI: 3130 nM
MDA-MB-435
  GI50: 1670 nM
  TGI: 3090 nM
NCI-H226 lung
  GI50: 1970 nM
  TGI: 4590 nM
NCI-H460 lung
  GI50: 1980 nM
  TGI: 3900 nM
NCI-H522 lung
  GI50: 1530 nM
  TGI: 2870 nM
OVCAR-4 ovarian
  GI50: 1730 nM
  TGI: 3130 nM
OVCAR-5 ovarian
  GI50: 1780 nM
  TGI: 3240 nM
OVCAR-8 ovarian
  GI50: 1730 nM
  TGI: 3140 nM
PC-3 prostate
  GI50: 1620 nM
  TGI: 3040 nM
RPMI-8226 leukemia
  GI50: 2610 nM
  TGI: 7270 nM
RXF 393 renal
  GI50: 1480 nM
  TGI: 2810 nM
SF-268 CNS
  GI50: 1590 nM
  TGI: 3040 nM
SF-295 CNS
  GI50: 1690 nM
  TGI: 3080 nM
SF-539 CNS
  GI50: 1610 nM
  TGI: 2980 nM
SK-MEL-2 melanoma
  GI50: 1590 nM
  TGI: 2940 nM
SK-MEL-28 melanoma
  GI50: 1730 nM
  TGI: 3120 nM
SK-MEL-5 melanoma
  GI50: 1790 nM
  TGI: 3190 nM
SK-OV-3 ovarian
  GI50: 1900 nM
  TGI: 3390 nM
SN12C renal
  GI50: 1590 nM
  TGI: 2940 nM
SNB-19 CNS
  GI50: 1720 nM
  TGI: 3120 nM
SNB-75 CNS
  GI50: 1400 nM
  TGI: 2700 nM
SR leukemia
  GI50: 313 nM
  TGI: > 100000 nM
SW-620 colon
  GI50: 1770 nM
  TGI: 3380 nM
T-47D breast
  GI50: 1220 nM
  TGI: 3910 nM
TK-10 renal
  GI50: 1830 nM
  TGI: 3220 nM
U251 CNS
  GI50: 1550 nM
  TGI: 2960 nM
UACC-257 melanoma
  GI50: 1710 nM
  TGI: 3110 nM
UACC-62 melanoma
  GI50: 1660 nM
  TGI: 3080 nM
UO-31 renal
  GI50: 1180 nM
  TGI: 2420 nM
